Reference: patent publication US20100267561A1, “HERBICIDAL PYRIDAZINONE DERIVATIVES” (priority 2007, published 2010)

Legend:
Assay type in all cases: in vivo
[1] = test system: southern (S.) sandbur (Cenchrus echinatus); assay: Test E pre-/postemergence plant response; conditions: scale 0 to 100
How it was run: (§1)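 Plant response was judged by eye relative to controls, 0 meaning no effect and 100 complete control, after 14 to 21 days under greenhouse conditions. Compound was formulated in a non-phytotoxic solvent mixture with surfactant.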

[2] = test system: guineagrass (Panicum maximum); assay: Test E pre-/postemergence plant response; conditions: scale 0 to 100
How it was run: as §1

[3] = test system: common chickweed (Stellaria media); assay: Test E pre-/postemergence plant response; conditions: scale 0 to 100
How it was run: as §1

[4] = test system: quackgrass (Elytrigia repens); assay: Test E pre-/postemergence plant response; conditions: scale 0 to 100
How it was run: as §1

[5] = test system: goosegrass (Eleusine indica); assay: Test E pre-/postemergence plant response; conditions: scale 0 to 100
How it was run: as §1

[6] = test system: bermudagrass (Cynodon dactylon); assay: Test E pre-/postemergence plant response; conditions: scale 0 to 100
How it was run: as §1

[7] = test system: common sowthistle (Sonchus oleraceous); assay: Test E pre-/postemergence plant response; conditions: scale 0 to 100
How it was run: as §1

[8] = test system: Russian thistle (Salsola kali); assay: Test E pre-/postemergence plant response; conditions: Preemergence, scale 0 to 100
How it was run: as §1

[9] = test system: Virginia (V.) dayflower (Commelina virginica); assay: Test E pre-/postemergence plant response; conditions: scale 0 to 100
How it was run: as §1

canola (Brassica rapa) = assay: Test C pre-/postemergence plant response
How it was run: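 Formulated in a surfactant-containing non-phytotoxic solvent, compounds were tested under controlled growth conditions as preemergence and postemergence treatments. Ratings from 0 (no effect) to 100 (complete control) were assigned visually relative to controls 15 to 25 days later.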

Cc1cc(-c2ccc(Cl)cc2)nn1-c1c(OS(=O)(=O)c2ccccc2)cnn(C)c1=O [Compound 35]
Plant response rating, Sandbur, S. ([1]; 16 g ai/ha, Preemergence): 75
Plant response rating, Sandbur, S. ([1]; 31 g ai/ha, Preemergence): 90
Plant response rating, Sandbur, S. ([1]; 62 g ai/ha, Preemergence): 100
Plant response rating, Sandbur, S. ([1]; Postemergence, 8 g ai/ha): 40
Plant response rating, Sandbur, S. ([1]; Postemergence, 16 g ai/ha): 75
Plant response rating, Sandbur, S. ([1]; Postemergence, 31 g ai/ha): 75
Plant response rating, Sandbur, S. ([1]; Postemergence, 62 g ai/ha): 75
Plant response rating, Guineagrass ([2]; 16 g ai/ha, Preemergence): 100
Plant response rating, Guineagrass ([2]; 31 g ai/ha, Preemergence): 100
Plant response rating, Guineagrass ([2]; 62 g ai/ha, Preemergence): 100
Plant response rating, Guineagrass ([2]; Postemergence, 8 g ai/ha): 75
Plant response rating, Guineagrass ([2]; Postemergence, 16 g ai/ha): 75
Plant response rating, Guineagrass ([2]; Postemergence, 31 g ai/ha): 80
Plant response rating, Guineagrass ([2]; Postemergence, 62 g ai/ha): 95
Plant response rating, Chickweed ([3]; Postemergence, 8 g ai/ha): 0
Plant response rating, Chickweed ([3]; Postemergence, 16 g ai/ha): 0
Plant response rating, Chickweed ([3]; Postemergence, 31 g ai/ha): 0
Plant response rating, Quackgrass ([4]; 16 g ai/ha, Preemergence): 20
Plant response rating, Quackgrass ([4]; 31 g ai/ha, Preemergence): 40
Plant response rating, Quackgrass ([4]; 62 g ai/ha, Preemergence): 50
Plant response rating, Quackgrass ([4]; Postemergence, 8 g ai/ha): 0
Plant response rating, Quackgrass ([4]; Postemergence, 16 g ai/ha): 10
Plant response rating, Quackgrass ([4]; Postemergence, 31 g ai/ha): 30
Plant response rating, Quackgrass ([4]; Postemergence, 62 g ai/ha): 40
Plant response rating, Goosegrass ([5]; 8 g ai/ha, Preemergence): 20
Plant response rating, Goosegrass ([5]; 16 g ai/ha, Preemergence): 75
Plant response rating, Goosegrass ([5]; 31 g ai/ha, Preemergence): 100
Plant response rating, Goosegrass ([5]; 62 g ai/ha, Preemergence): 100
Plant response rating, Goosegrass ([5]; Postemergence, 8 g ai/ha): 30
Plant response rating, Goosegrass ([5]; Postemergence, 16 g ai/ha): 30
Plant response rating, Goosegrass ([5]; Postemergence, 31 g ai/ha): 40
Plant response rating, Goosegrass ([5]; Postemergence, 62 g ai/ha): 75
Plant response rating, Bermudagrass ([6]; 8 g ai/ha, Preemergence): 60
Plant response rating, Bermudagrass ([6]; 16 g ai/ha, Preemergence): 80
Plant response rating, Bermudagrass ([6]; 31 g ai/ha, Preemergence): 98
Plant response rating, Bermudagrass ([6]; 62 g ai/ha, Preemergence): 100
Plant response rating, Bermudagrass ([6]; Postemergence, 8 g ai/ha): 35
Plant response rating, Bermudagrass ([6]; Postemergence, 16 g ai/ha): 65
Plant response rating, Bermudagrass ([6]; Postemergence, 31 g ai/ha): 80
Plant response rating, Bermudagrass ([6]; Postemergence, 62 g ai/ha): 90

CCCc1cc(-c2ccc(Cl)cc2)nn1-c1c(O)cnn(C)c1=O [Compound 43]
Plant response rating, Sandbur, S. ([1]; 16 g ai/ha, Preemergence): 60
Plant response rating, Sandbur, S. ([1]; 31 g ai/ha, Preemergence): 75
Plant response rating, Sandbur, S. ([1]; 62 g ai/ha, Preemergence): 98
Plant response rating, Sandbur, S. ([1]; Postemergence, 8 g ai/ha): 80
Plant response rating, Sandbur, S. ([1]; Postemergence, 16 g ai/ha): 95
Plant response rating, Sandbur, S. ([1]; Postemergence, 31 g ai/ha): 98
Plant response rating, Sandbur, S. ([1]; Postemergence, 62 g ai/ha): 100
Plant response rating, Guineagrass ([2]; 16 g ai/ha, Preemergence): 95
Plant response rating, Guineagrass ([2]; 31 g ai/ha, Preemergence): 100
Plant response rating, Guineagrass ([2]; 62 g ai/ha, Preemergence): 100
Plant response rating, Guineagrass ([2]; Postemergence, 8 g ai/ha): 100
Plant response rating, Guineagrass ([2]; Postemergence, 16 g ai/ha): 100
Plant response rating, Guineagrass ([2]; Postemergence, 31 g ai/ha): 100
Plant response rating, Guineagrass ([2]; Postemergence, 62 g ai/ha): 100
Plant response rating, Sowthistle ([7]; 16 g ai/ha, Preemergence): 0
Plant response rating, Sowthistle ([7]; 31 g ai/ha, Preemergence): 0
Plant response rating, Sowthistle ([7]; 62 g ai/ha, Preemergence): 0
Plant response rating, Sowthistle ([7]; Postemergence, 8 g ai/ha): 0
Plant response rating, Sowthistle ([7]; Postemergence, 16 g ai/ha): 0
Plant response rating, Sowthistle ([7]; Postemergence, 31 g ai/ha): 0
Plant response rating, Sowthistle ([7]; Postemergence, 62 g ai/ha): 0
Plant response rating, Thistle, Russian ([8]; 16 g ai/ha): 0
Plant response rating, Thistle, Russian ([8]; 31 g ai/ha): 0
Plant response rating, Thistle, Russian ([8]; 62 g ai/ha): 0
Plant response rating, Chickweed ([3]; 16 g ai/ha, Preemergence): 0
Plant response rating, Chickweed ([3]; 31 g ai/ha, Preemergence): 0
Plant response rating, Chickweed ([3]; 62 g ai/ha, Preemergence): 0
Plant response rating, Quackgrass ([4]; 16 g ai/ha, Preemergence): 70
Plant response rating, Quackgrass ([4]; 31 g ai/ha, Preemergence): 80
Plant response rating, Quackgrass ([4]; 62 g ai/ha, Preemergence): 95
Plant response rating, Quackgrass ([4]; Postemergence, 8 g ai/ha): 0
Plant response rating, Quackgrass ([4]; Postemergence, 16 g ai/ha): 0
Plant response rating, Quackgrass ([4]; Postemergence, 31 g ai/ha): 20
Plant response rating, Quackgrass ([4]; Postemergence, 62 g ai/ha): 75
Plant response rating, Dayflower, V. ([9]; 16 g ai/ha, Preemergence): 0
Plant response rating, Dayflower, V. ([9]; 31 g ai/ha, Preemergence): 0
Plant response rating, Dayflower, V. ([9]; 62 g ai/ha, Preemergence): 0
Plant response rating, Dayflower, V. ([9]; Postemergence, 8 g ai/ha): 0
Plant response rating, Dayflower, V. ([9]; Postemergence, 16 g ai/ha): 0
Plant response rating, Dayflower, V. ([9]; Postemergence, 31 g ai/ha): 0
Plant response rating, Dayflower, V. ([9]; Postemergence, 62 g ai/ha): 0
Plant response rating, Goosegrass ([5]; 16 g ai/ha, Preemergence): 65
Plant response rating, Goosegrass ([5]; 31 g ai/ha, Preemergence): 95
Plant response rating, Goosegrass ([5]; 62 g ai/ha, Preemergence): 98
Plant response rating, Goosegrass ([5]; Postemergence, 8 g ai/ha): 20
Plant response rating, Goosegrass ([5]; Postemergence, 16 g ai/ha): 75
Plant response rating, Goosegrass ([5]; Postemergence, 31 g ai/ha): 75
Plant response rating, Goosegrass ([5]; Postemergence, 62 g ai/ha): 90
Plant response rating, Bermudagrass ([6]; 16 g ai/ha, Preemergence): 30
Plant response rating, Bermudagrass ([6]; 31 g ai/ha, Preemergence): 70
Plant response rating, Bermudagrass ([6]; 62 g ai/ha, Preemergence): 85
Plant response rating, Bermudagrass ([6]; Postemergence, 8 g ai/ha): 0
Plant response rating, Bermudagrass ([6]; Postemergence, 16 g ai/ha): 20
Plant response rating, Bermudagrass ([6]; Postemergence, 31 g ai/ha): 20
Plant response rating, Bermudagrass ([6]; Postemergence, 62 g ai/ha): 20
Plant response rating, Canola (canola (Brassica rapa); Postemergence, 8 g ai/ha, scale 0 to 100, 0 no effect, 100 complete control): 0
Plant response rating, Canola (canola (Brassica rapa); Postemergence, 16 g ai/ha, scale 0 to 100, 0 no effect, 100 complete control): 0
Plant response rating, Canola (canola (Brassica rapa); Postemergence, 31 g ai/ha, scale 0 to 100, 0 no effect, 100 complete control): 0
Plant response rating, Canola (canola (Brassica rapa); Postemergence, 62 g ai/ha, scale 0 to 100, 0 no effect, 100 complete control): 0
Plant response rating, Canola (canola (Brassica rapa); Preemergence, 8 g ai/ha, scale 0 to 100 (0 no effect, 100 complete control)): 0
Plant response rating, Canola (canola (Brassica rapa); Preemergence, 31 g ai/ha, scale 0 to 100 (0 no effect, 100 complete control)): 0
Plant response rating, Canola (canola (Brassica rapa); Preemergence, 62 g ai/ha, scale 0 to 100, 0 no effect, 100 complete control): 0
